One molecule from ChEMBL document CHEMBL5042492, “Noncovalent CDK12/13 dual inhibitors-based PROTACs degrade CDK12-Cyclin K complex and induce synthetic lethality with PARP inhibitor” (Eur J Med Chem, 2022) can be followed below.

Test [1] addresses T1, Protein cereblon/Cyclin-K/Cyclin-dependent kinase 12 (Homo sapiens, UniProt O75909+Q9NYV4+Q96SW2). Nature of the test: Protac activity at human CRBN/CDK12/CycK in human Bel-7402 cells assessed as degradation of CDK9 upto 30 uM measured after 24 hrs by Western blotting assay. As to conditions: dose microM <=30, time 24.0 hrs. The class given is cell-based. For orientation: Immunoblotting shows a protein as a band on a membrane.
Target sequence in this assay (O75909 whole entry, looked up): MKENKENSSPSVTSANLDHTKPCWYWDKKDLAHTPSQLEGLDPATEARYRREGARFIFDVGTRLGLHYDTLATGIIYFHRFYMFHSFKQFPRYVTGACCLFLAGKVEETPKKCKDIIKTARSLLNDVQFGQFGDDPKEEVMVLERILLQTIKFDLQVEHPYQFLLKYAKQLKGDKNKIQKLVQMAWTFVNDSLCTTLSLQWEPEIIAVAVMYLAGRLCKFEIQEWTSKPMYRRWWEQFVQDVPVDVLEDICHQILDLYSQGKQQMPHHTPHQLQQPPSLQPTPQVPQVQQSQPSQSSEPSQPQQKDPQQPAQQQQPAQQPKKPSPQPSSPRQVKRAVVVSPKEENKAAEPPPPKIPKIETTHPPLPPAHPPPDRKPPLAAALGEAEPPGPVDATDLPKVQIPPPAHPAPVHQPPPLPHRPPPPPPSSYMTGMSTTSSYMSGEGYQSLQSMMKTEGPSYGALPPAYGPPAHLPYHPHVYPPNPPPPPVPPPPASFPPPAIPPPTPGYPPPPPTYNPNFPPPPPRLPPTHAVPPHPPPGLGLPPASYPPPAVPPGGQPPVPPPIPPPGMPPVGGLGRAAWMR
Target sequence in this assay (Q96SW2 whole entry, looked up): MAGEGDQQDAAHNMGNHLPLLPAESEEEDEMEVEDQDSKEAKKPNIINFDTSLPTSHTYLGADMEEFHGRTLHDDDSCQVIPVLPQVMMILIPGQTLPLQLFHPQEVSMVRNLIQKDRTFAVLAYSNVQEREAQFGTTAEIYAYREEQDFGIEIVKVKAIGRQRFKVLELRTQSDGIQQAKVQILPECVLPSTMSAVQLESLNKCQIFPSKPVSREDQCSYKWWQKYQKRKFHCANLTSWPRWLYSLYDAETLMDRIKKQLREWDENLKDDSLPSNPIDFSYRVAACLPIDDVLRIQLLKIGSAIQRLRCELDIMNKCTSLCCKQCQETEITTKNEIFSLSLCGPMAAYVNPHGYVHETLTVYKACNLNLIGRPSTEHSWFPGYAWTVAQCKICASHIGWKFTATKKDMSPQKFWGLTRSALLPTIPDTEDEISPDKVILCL
Target sequence in this assay (Q9NYV4 whole entry, looked up): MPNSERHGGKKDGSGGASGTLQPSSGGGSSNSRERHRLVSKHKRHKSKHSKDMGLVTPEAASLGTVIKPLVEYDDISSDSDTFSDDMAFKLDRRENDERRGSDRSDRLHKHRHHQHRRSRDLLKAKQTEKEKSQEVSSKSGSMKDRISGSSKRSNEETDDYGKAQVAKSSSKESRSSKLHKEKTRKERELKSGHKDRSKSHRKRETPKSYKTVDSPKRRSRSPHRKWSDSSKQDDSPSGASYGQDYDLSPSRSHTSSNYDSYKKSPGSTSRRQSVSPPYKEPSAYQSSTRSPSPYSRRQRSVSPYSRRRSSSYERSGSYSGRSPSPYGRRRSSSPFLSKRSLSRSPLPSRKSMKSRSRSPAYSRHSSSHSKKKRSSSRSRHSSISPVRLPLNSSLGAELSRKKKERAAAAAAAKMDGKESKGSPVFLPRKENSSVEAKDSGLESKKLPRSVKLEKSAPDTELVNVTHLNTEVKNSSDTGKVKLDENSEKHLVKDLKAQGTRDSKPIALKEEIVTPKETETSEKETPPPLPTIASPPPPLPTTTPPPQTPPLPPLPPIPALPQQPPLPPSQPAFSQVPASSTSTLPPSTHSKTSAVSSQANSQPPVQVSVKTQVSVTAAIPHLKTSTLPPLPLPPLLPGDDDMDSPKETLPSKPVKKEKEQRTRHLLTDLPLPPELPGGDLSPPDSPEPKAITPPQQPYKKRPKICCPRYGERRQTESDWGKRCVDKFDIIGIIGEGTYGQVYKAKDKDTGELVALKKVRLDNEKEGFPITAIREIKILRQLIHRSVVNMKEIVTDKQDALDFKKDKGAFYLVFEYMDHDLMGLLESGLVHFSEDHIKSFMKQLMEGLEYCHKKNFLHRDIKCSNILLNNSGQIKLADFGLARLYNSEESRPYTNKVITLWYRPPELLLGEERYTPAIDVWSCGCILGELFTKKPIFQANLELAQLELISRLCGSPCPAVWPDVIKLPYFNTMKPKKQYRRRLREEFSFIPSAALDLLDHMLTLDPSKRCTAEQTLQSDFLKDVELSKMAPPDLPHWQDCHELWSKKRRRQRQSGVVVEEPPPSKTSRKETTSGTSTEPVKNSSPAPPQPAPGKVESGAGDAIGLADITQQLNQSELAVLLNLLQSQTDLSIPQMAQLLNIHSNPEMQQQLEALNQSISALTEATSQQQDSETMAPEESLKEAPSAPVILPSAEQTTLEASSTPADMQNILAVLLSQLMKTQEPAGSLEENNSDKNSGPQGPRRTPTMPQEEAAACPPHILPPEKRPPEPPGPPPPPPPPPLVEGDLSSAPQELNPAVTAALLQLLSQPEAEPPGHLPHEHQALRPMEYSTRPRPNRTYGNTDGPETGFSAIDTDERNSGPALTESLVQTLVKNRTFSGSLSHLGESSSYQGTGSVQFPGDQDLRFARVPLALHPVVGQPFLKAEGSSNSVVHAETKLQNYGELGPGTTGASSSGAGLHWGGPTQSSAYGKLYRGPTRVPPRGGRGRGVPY

The next test deals with CDK12/Cyclin K (Homo sapiens, UniProt Q9NYV4). Description: Inhibition of human CDK12 (696 to 1082 residues) /cyclinK (1 to 300 residues) using ac-YSPTSPpSYSPTSFpS-YSPTSPpSY-[PEG2]-RR-amid peptide as substrate in presence of ATP measured after 2 hrs by ADP-Glo kinase assay. The class given is protein-complex assay. (In ADP-Glo the light output rises with the ADP produced.)
Sequence of CDK12/Cyclin K (O75909 whole entry, the tested form may be a part): as the sequence (O75909 whole entry, looked up) above
Sequence of CDK12/Cyclin K (Q9NYV4 whole entry, the tested form may be a part): as the sequence (Q9NYV4 whole entry, looked up) above

Test [2] concerns the target T1, Protein cereblon/Cyclin-K/Cyclin-dependent kinase 12. Description: Protac activity at human CRBN/CDK12/CycK in human MDA-MB-231 cells assessed as CDK12 mRNA expression measured after 6 hrs by RT-qPCR method. The class given is cell-based. Background: Real-time PCR tracks product formation cycle by cycle.
Target sequence in this assay (O75909 whole entry, looked up): as the sequence (O75909 whole entry, looked up) above
Target sequence in this assay (Q96SW2 whole entry, looked up): as the sequence (Q96SW2 whole entry, looked up) above
Target sequence in this assay (Q9NYV4 whole entry, looked up): as the sequence (Q9NYV4 whole entry, looked up) above
The target is the same in test [3]. Description: Protac activity at human CRBN/CDK12/CycK in human Bel-7402 cells assessed as degradation of Cyclin H upto 30 uM measured after 24 hrs by Western blotting assay. The class given is cell-based. Particulars: dose microM <=30, time 24.0 hrs.
Target sequence in this assay (O75909 whole entry, looked up): as the sequence (O75909 whole entry, looked up) above
Target sequence in this assay (Q96SW2 whole entry, looked up): as the sequence (Q96SW2 whole entry, looked up) above
Target sequence in this assay (Q9NYV4 whole entry, looked up): as the sequence (Q9NYV4 whole entry, looked up) above
Test [4] has the same target. Nature of the test: Protac activity at human CRBN/CDK12/CycK in human MDA-MB-231 cells assessed as degradation of CK1alpha up to 30 uM measured after 24 hrs by Western blotting assay. The class given is cell-based. Particulars: dose microM <=30, time 24.0 hrs.
Target sequence in this assay (O75909 whole entry, looked up): as the sequence (O75909 whole entry, looked up) above
Target sequence in this assay (Q96SW2 whole entry, looked up): as the sequence (Q96SW2 whole entry, looked up) above
Target sequence in this assay (Q9NYV4 whole entry, looked up): as the sequence (Q9NYV4 whole entry, looked up) above
For test [5] the target is unchanged. Nature of the test: Protac activity at human CRBN/CDK12/CycK in human MDA-MB-231 cells assessed as degradation of CDK12 at 3 uM measured after 24 hrs by Western blotting assay. The class given is cell-based.
Target sequence in this assay (O75909 whole entry, looked up): as the sequence (O75909 whole entry, looked up) above
Target sequence in this assay (Q96SW2 whole entry, looked up): as the sequence (Q96SW2 whole entry, looked up) above
Target sequence in this assay (Q9NYV4 whole entry, looked up): as the sequence (Q9NYV4 whole entry, looked up) above
For test [6] the target is unchanged. Nature of the test: Protac activity at human CRBN/CDK12/CycK in human Bel-7402 cells assessed as degradation of CycK at 1 to 3 uM for 24 hrs in presence of MG132 by Western blotting assay. The class given is cell-based. As to conditions: dose 1-3 µM.
Target sequence in this assay (O75909 whole entry, looked up): as the sequence (O75909 whole entry, looked up) above
Target sequence in this assay (Q96SW2 whole entry, looked up): as the sequence (Q96SW2 whole entry, looked up) above
Target sequence in this assay (Q9NYV4 whole entry, looked up): as the sequence (Q9NYV4 whole entry, looked up) above
The target is the same in test [7]. Description: Protac activity at human CRBN/CDK12/CycK in human Bel-7402 cells assessed as downregulation of ATM measured after 6 hrs by RT-qPCR method. The class given is cell-based.
A further test relates to MDA-MB-231. Nature of the test: Synergistic antiproliferative activity against human MDA-MB-231 cells in presence of 1 uM of Olaparib at 1 uM for 10 days by SRB staining based clone formation assay relative to control. The class given is functional. Particulars: MDA-MB-231, 240 h, time 10 day.
The target of test [8] is T1, Protein cereblon/Cyclin-K/Cyclin-dependent kinase 12. Nature of the test: Protac activity at human CRBN/CDK12/CycK in human MDA-MB-231 cells assessed as downregulation of Mcl-1 level upto 30 uM measured after 24 hrs by Western blotting assay. The class given is cell-based. Particulars: dose microM <=30, time 24.0 hrs.
For test [9] the target is unchanged. Description: Protac activity at human CRBN/CDK12/CycK in human Bel-7402 cells assessed as degradation of CycK measured after 24 hrs by Western blotting assay. The class given is cell-based.
Target sequence in this assay (O75909 whole entry): as the sequence (O75909 whole entry, looked up) above
Target sequence in this assay (Q9NYV4 whole entry): as the sequence (Q9NYV4 whole entry, looked up) above
Target sequence in this assay (Q96SW2 whole entry): as the sequence (Q96SW2 whole entry, looked up) above
Test [10] shares this target. Nature of the test: Protac activity at human CRBN/CDK12/CycK in human MDA-MB-231 cells assessed as CycK mRNA expression measured after 6 hrs by RT-qPCR method. The class given is cell-based.
For test [11] the target is unchanged. Description: Protac activity at human CRBN/CDK12/CycK in human Bel-7402 cells assessed as degradation of Cyclin T1 upto 30 uM measured after 24 hrs by Western blotting assay. The class given is cell-based. Particulars: dose microM <=30, time 24.0 hrs.
The target is the same in test [12]. Nature of the test: Protac activity at human CRBN/CDK12/CycK in human MDA-MB-231 cells assessed as degradation of Cyclin T1 up to 30 uM measured after 24 hrs by Western blotting assay. The class given is cell-based. Particulars: dose microM <=30, time 24.0 hrs.
For test [13] the target is unchanged. Description: Protac activity at human CRBN/CDK12/CycK in human MDA-MB-231(CRBN/KO) cells assessed as degradation of CDK12 measured after 24 hrs by Western blotting assay. The class given is cell-based.
For test [14] the target is unchanged. Description: Protac activity at human CRBN/CDK12/CycK in human Bel-7402 cells assessed as degradation of CDK7 up to 30 uM measured after 24 hrs by Western blotting assay. The class given is cell-based. Particulars: dose microM <=30, time 24.0 hrs.
The target is the same in test [15]. Nature of the test: Protac activity at human CRBN/CDK12/CycK in human MDA-MB-231 cells assessed as degradation of CDK12 measured after 24 hrs by Western blotting assay. The class given is cell-based.
Target sequence in this assay (O75909 whole entry): as the sequence (O75909 whole entry, looked up) above
Target sequence in this assay (Q9NYV4 whole entry): as the sequence (Q9NYV4 whole entry, looked up) above
Target sequence in this assay (Q96SW2 whole entry): as the sequence (Q96SW2 whole entry, looked up) above

Structures are written as SMILES. Activity calls are given as the source filed them. The rule behind the calls is not given here.

Usually IC50 stands for the concentration that gives 50% inhibition. A word on the inhibition: it is the relative decrease from the control value, in per cent. In general, DC50 refers to the midpoint of the concentration-degradation curve. With `CC(C)n1cnc2c(NCc3nc4cc(F)c(NCCCCCCCCNC(=O)COc5cccc6c5C(=O)N(C5CCC(=O)NC5=O)C6=O)cc4[nH]3)nc(N3CCOCC3)nc21` (configuration not stated), the result in test [1], in [2], in test [3], in [4], in test [6] and in test [8] was inactive. For the same molecule, the outcome in test [10], in test [11], in [12], in [13] and in test [14] was inactive. Moreover, the IC50 on CDK12/Cyclin K is 645 nM. In addition, the result in test [5] and in test [7] was Active. Moreover, the inhibition at 1 µM in the test on MDA-MB-231 is 67.8%. Besides, the DC50 in test [9] was 412 nM; in [15] it was 416 nM.
